According to ChEMBL document CHEMBL4004872, “A robust synthesis of functionalized 2H-indazoles via solid state melt reaction (SSMR) and their anti-tubercular activity” (Bioorg Med Chem Lett, 2017):
Converted amounts (≈) assume the structure as drawn.

What was measured:
[1] = Cytotoxicity against mouse RAW264.7 cells assessed as growth inhibition at 50 ug/ml after 48 hrs by MTT assay relative to control; type: cell-based; conditions: read-out: GI
[2] = test system: Mycobacterium tuberculosis; experiment: Antitubercular activity against Mycobacterium tuberculosis H37Rv after 7 days by Alamar blue assay; type: functional; conditions: 168 h

Structure (SMILES) | inhibition at 48 h, 50 ug/ml [1] [%] | MIC99 [2] [µM]
O=C(Nc1ccccn1)c1ccccc1-n1cc2ccccc2n1 | 31.8 | 19.9 (≈ 6.26 µg/mL)
O=C(NCc1ccc(Cl)cc1)c1ccccc1-n1cc2ccccc2n1 | 28.1 | 8.66 (≈ 3.13 µg/mL)
Cc1ccc(NC(=O)c2ccccc2-n2cc3ccccc3n2)c(C)c1 | 36.7 | 18.3 (≈ 6.25 µg/mL)
O=C(NCc1ccccc1)c1ccccc1-n1cc2ccccc2n1 | 31.6 | 19.1 (≈ 6.26 µg/mL)
O=C(NCc1ccc(F)cc1)c1ccccc1-n1cc2ccccc2n1 |  | 36.3 (≈ 12.6 µg/mL)
CCCCNC(=O)c1ccccc1-n1cc2ccccc2n1 |  | 85.3 (≈ 25 µg/mL)
CC(C)(C)NC(=O)c1ccccc1-n1cc2ccccc2n1 |  | 42.7 (≈ 12.5 µg/mL)
COc1ccc(NC(=O)c2ccccc2-n2cc3ccccc3n2)cc1 |  | 36.4 (≈ 12.5 µg/mL)
O=C(NCc1ccccc1)c1ccccc1-n1cc2ccc(Cl)cc2n1 | 30.6 | 17.3 (≈ 6.26 µg/mL)
O=C(NC1CCCCC1)c1ccccc1-n1cc2ccccc2n1 |  | 78.4 (≈ 25 µg/mL)
COc1ccc(CNC(=O)c2ccccc2-n2cc3ccccc3n2)cc1 |  | 35 (≈ 12.5 µg/mL)
O=C(Nc1ccc(F)cc1)c1ccccc1-n1cc2ccccc2n1 |  | 37.8 (≈ 12.5 µg/mL)
O=C(NCc1ccccc1)c1ccccc1-n1cc2cc3c(cc2n1)OCO3 | 22.9 | 4.2 (≈ 1.56 µg/mL)
O=C(NCCc1c[nH]c2ccccc12)c1ccccc1-n1cc2ccccc2n1 | 18.8 | 16.4 (≈ 6.25 µg/mL)
Cc1ccnc(NC(=O)c2ccccc2-n2cc3ccccc3n2)c1 |  | 38.1 (≈ 12.5 µg/mL)
COc1cc(NC(=O)c2ccccc2-n2cc3ccccc3n2)cc(OC)c1OC | 32.1 | 7.75 (≈ 3.13 µg/mL)
O=C(Nc1ccccc1)c1ccccc1-n1cc2ccccc2n1 | 39.6 | 15.8 (≈ 4.96 µg/mL)
O=C(NCc1ccccc1)c1ccccc1-n1cc2ccc(Br)cc2n1 |  | 56.4 (≈ 22.9 µg/mL)
O=C(NCc1ccccc1)c1ccccc1-n1cc2cc(Br)ccc2n1 | 40.5 | 7.72 (≈ 3.14 µg/mL)
O=C(NCc1ccccc1Cl)c1ccccc1-n1cc2ccccc2n1 | 23.7 | 10.6 (≈ 3.83 µg/mL)
Cc1ccc(CNC(=O)c2ccccc2-n2cc3ccccc3n2)cc1 | 34.5 | 9.16 (≈ 3.13 µg/mL)
O=C(Nc1ccccc1O)c1ccccc1-n1cc2ccccc2n1 |  | 38 (≈ 12.5 µg/mL)
CC[C@@H](CO)NCCN[C@@H](CC)CO [ETHAMBUTOL] |  | 7.6 (≈ 1.55 µg/mL)
NNC(=O)c1ccncc1 [ISONIAZID] |  | 0.4 (≈ 0.0549 µg/mL)
CO[C@H]1/C=C/O[C@@]2(C)Oc3c(C)c(O)c4c(O)c(c(/C=N/N5CCN(C)CC5)c(O)c4c3C2=O)NC(=O)/C(C)=C\C=C\[C@H](C)[C@H](O)[C@@H](C)[C@@H](O)[C@@H](C)[C@H](OC(C)=O)[C@@H]1C [RIFAMPIN] |  | 0.5 (≈ 0.411 µg/mL)
